Assay results reported in US11679114B2, “Progestogen-only oral contraception” (Navad Life Sciences Pte, priority 2021, dated 2023).
Where “and” joins values, the source holds several entries; their conditions need not be identical. Equal entries are not always repeated.

Columns and labels:
Assay type in all cases: in vivo, human
[1] = test system: healthy, cyclic women; test: Serum FSH, LH, estradiol (E2) and progesterone (P) concentrations during treatment
Method: (§1) The tablets prepared in Example 1 were tested in a single-center, open-label, adaptive design study to evaluate the influence on hormonal and ovarian function and vaginal bleeding pattern of different higher dosages of LNG administered once daily for 28 days over two consecutive treatment cycles in healthy, cyclic women.
(§2) Subjects started study medication intake on the first day of menstrual bleeding after the pre-treatment cycle. One tablet was taken orally, around the same time every morning, during 56 consecutive days. Study visits were planned every three (±1) days from treatment day 3 (±1) until 27 (±1) and from day 31 (±1) until day 55 (±1). At each visit the diameter of the largest follicle-like structure (FLS) and serum follicle-stimulating hormone (FSH), luteinizing hormone (LH), estradiol (E2) and P concentrations were measured.
(§3) If ovulation was observed during treatment, the subsequent luteal phase was evaluated using the Landgren criterion, i.e. the luteal phase was considered adequate when P concentrations were >16 nmol/L during at least 5 days (Landgren et al., “Hormonal effects of the 300 μg norethisterone (NET) minipill. 1. Daily steroid levels in 43 subjects during a pretreatment cycle and during the second month of NET administration,” Contraception 1980; 21: pp. 87-113). TVUS measurements of the diameter of the largest FLS (mean of two directions) were performed using a Voluson E8 Expert device (GE Medical Systems). Serum FSH, LH, E2, P and SHBG concentrations were determined by validated chemiluminescent microparticle immunoassays (Abbott, Longford, Ireland). All pharmacodynamic parameters were evaluated descriptively.

[2] = test system: healthy, cyclic women; test: Return of ovulation after the last treatment day; conditions: for Ovulation observed, average days after last treatment: post-treatment period
Method: After the last treatment day, assessments were continued every three (±1) days until ovulation was observed, followed by P measurements 2 (±1) and, if necessary, 4 (±1) days after ovulation. An end-of-study examination was performed 6 (±1) days after ovulation, or on day 30 (±1) in case no ovulation had been observed until then.

[3] = test system: healthy, cyclic women; test: Ovarian activity according the Hoogland-Skouby score during two 28-day treatment periods
Method: as §1
The first tested dosage was 0.095 mg per day. The choice of subsequent dosages depended on the occurrence of ovulations in the previous treatment groups. The study was stopped when the lowest dosage completely inhibiting ovulation was identified, and one higher and one lower dosage were investigated.
as §2
The primary outcome parameter was ovarian activity according the Hoogland-Skouby score (Table 1), determined for each 28-day treatment period (Hoogland H J, Skouby S O. “Ultrasound evaluation of ovarian activity under oral contraceptives,” Contraception 1993; 47: pp. 583-90).
as §3

[4] = LNG 0.095 mg per day, BMI < 30 kg/m^2, entire treatment period
[5] = LNG 0.095 mg per day, BMI ≥ 30 kg/m^2, entire treatment period
[6] = LNG 0.095 mg per day, entire treatment period
[7] = LNG 0.095 mg per day, treatment period 1
[8] = LNG 0.095 mg per day, treatment period 2
[9] = LNG 0.115 mg per day, BMI < 30 kg/m^2, entire treatment period
[10] = LNG 0.115 mg per day, BMI ≥ 30 kg/m^2, entire treatment period
[11] = LNG 0.115 mg per day, entire treatment period
[12] = LNG 0.115 mg per day, treatment period 1
[13] = LNG 0.115 mg per day, treatment period 2
[14] = LNG 0.135 mg per day, BMI < 30 kg/m^2, entire treatment period
[15] = LNG 0.135 mg per day, BMI ≥ 30 kg/m^2, entire treatment period
[16] = LNG 0.135 mg per day, entire treatment period
[17] = LNG 0.135 mg per day, treatment period 1
[18] = LNG 0.135 mg per day, treatment period 2

With `C#C[C@]1(O)CC[C@H]2[C@@H]3CCC4=CC(=O)CC[C@@H]4[C@H]3CC[C@@]21CC` (racemic) [LNG, levonorgestrel] the “LH peak in one of the ovulating subjects” value ([1]; LNG 0.095 mg per day) was 68.0 IU/L, the “Maximum E2 concentration, Mean ± SD” value [1, 4] was 705 ± 537 pmol/L and the “Mean E2 concentration, Mean ± SD” value [1, 4] was 253 ± 140 pmol/L. For the same molecule, the “Maximum E2 concentration, Mean ± SD” value [1, 5] was 484 ± 277 pmol/L, the “Mean E2 concentration, Mean ± SD” value [1, 5] was 190 ± 72 pmol/L and the “Maximum E2 concentration, Mean ± SD” value [1, 6] was 660 ± 500 pmol/L. For the same molecule, the “Maximum E2 concentration, Median” value [1, 6] was 580 pmol/L, the “Mean E2 concentration, Mean ± SD” value [1, 6] was 241 pmol/L and 241 ± 130 pmol/L and the “Mean E2 concentration, Median” value [1, 6] was 204 pmol/L. The “Maximum E2 concentration, Mean ± SD” value [1, 7] was 595 ± 495 pmol/L, the “Maximum E2 concentration, Median” value [1, 7] was 362 pmol/L and the “Mean E2 concentration, Mean ± SD” value [1, 7] was 289 ± 195 pmol/L. For the same molecule, the “Mean E2 concentration, Median” value [1, 7] was 231 pmol/L, the “Maximum E2 concentration, Mean ± SD” value [1, 8] was 384 ± 304 pmol/L and the “Maximum E2 concentration, Median” value [1, 8] was 224 pmol/L. The “Mean E2 concentration, Mean ± SD” value [1, 8] was 186 ± 97 pmol/L, the “Mean E2 concentration, Median” value [1, 8] was 144 pmol/L and the “Maximum E2 concentration, Mean ± SD” value [1, 9] was 611 ± 623 pmol/L. The “Mean E2 concentration, Mean ± SD” value [1, 9] was 213 ± 160 pmol/L, the “Maximum E2 concentration, Mean ± SD” value [1, 10] was 607 ± 116 pmol/L and the “Mean E2 concentration, Mean ± SD” value [1, 10] was 242 ± 66 pmol/L. For the same molecule, the “Maximum E2 concentration, Mean ± SD” value [1, 11] was 610 ± 559 pmol/L, the “Maximum E2 concentration, Median” value [1, 11] was 511 pmol/L and the “Mean E2 concentration, Mean ± SD” value [1, 11] was 219 pmol/L and 219 ± 146 pmol/L. The “Mean E2 concentration, Median” value [1, 11] was 186 pmol/L, the “Maximum E2 concentration, Mean ± SD” value [1, 12] was 563 ± 551 pmol/L and the “Maximum E2 concentration, Median” value [1, 12] was 481 pmol/L. For the same molecule, the “Mean E2 concentration, Mean ± SD” value [1, 12] was 269 ± 217 pmol/L, the “Mean E2 concentration, Median” value [1, 12] was 244 pmol/L and the “Maximum E2 concentration, Mean ± SD” value [1, 13] was 367 ± 278 pmol/L. For the same molecule, the “Maximum E2 concentration, Median” value [1, 13] was 215 pmol/L, the “Mean E2 concentration, Mean ± SD” value [1, 13] was 170 ± 88 pmol/L and the “Mean E2 concentration, Median” value [1, 13] was 146 pmol/L. The “Maximum E2 concentration, Mean ± SD” value [1, 14] was 415 ± 244 pmol/L, the “Mean E2 concentration, Mean ± SD” value [1, 14] was 178 ± 72 pmol/L and the “Maximum E2 concentration, Mean ± SD” value [1, 15] was 421 ± 332 pmol/L. For the same molecule, the “Mean E2 concentration, Mean ± SD” value [1, 15] was 190 ± 87 pmol/L, the “Maximum E2 concentration, Mean ± SD” value [1, 16] was 416 ± 256 pmol/L and the “Maximum E2 concentration, Median” value [1, 16] was 279 pmol/L. For the same molecule, the “Mean E2 concentration, Mean ± SD” value [1, 16] was 180 pmol/L and 180 ± 73 pmol/L, the “Mean E2 concentration, Median” value [1, 16] was 144 pmol/L and the “Maximum E2 concentration, Mean ± SD” value [1, 17] was 369 ± 245 pmol/L. For the same molecule, the “Maximum E2 concentration, Median” value [1, 17] was 239 pmol/L, the “Mean E2 concentration, Mean ± SD” value [1, 17] was 198 ± 100 pmol/L and the “Mean E2 concentration, Median” value [1, 17] was 156 pmol/L. The “Maximum E2 concentration, Mean ± SD” value [1, 18] was 302 ± 184 pmol/L, the “Maximum E2 concentration, Median” value [1, 18] was 242 pmol/L and the “Mean E2 concentration, Mean ± SD” value [1, 18] was 162 ± 62 pmol/L. For the same molecule, the “Mean E2 concentration, Median” value [1, 18] was 148 pmol/L, the “Subjects with mean E2 concentrations ≥110 pmol/L (30 pg/mL)” value ([1]; all dosages (0.095, 0.115, 0.135 mg per day)) was 80-90% and the “Mean E2 concentrations in all subjects” value ([1]; all dosages, except in one subject in the 0.115 mg group, 73.4 pmol/L = 20 pg/mL) was > 73.4 pmol/L. The “Individual P concentrations during treatment” value ([1]; all groups, except 2 ovulating subjects (0.095 mg), the subject with abnormal ovulation (0.135 mg) and one other subject) was “below 5 nmol/L”, the “Individual LH concentrations” value ([1]; all groups, except for an LH peak in one ovulating subject in the 0.095 mg group) was “below 12.1 IU/L” and the “Mean E2 concentrations in all LNG treatment groups” value ([1]; all treatment groups, 110 pmol/L (30 pg/mL) = lower limit assumed not to lead to accelerated bone loss) was “above 110 pmol/L”. The “Single P concentration in another subject” value ([1]; first treatment visit, probably a residue from the pre-treatment cycle, dose group not stated) was 5.85 nmol/L, the “Ovulation observed, average days after last treatment” value (“Ovulation observed, average days” for short) ([2]; LNG 0.095 mg per day for 56 days) was 15.5 days and the “Ovulation observed, average days” value ([2]; LNG 0.115 mg per day for 56 days) was 14.1 days. For the same molecule, the “Ovulation observed, average days” value ([2]; LNG 0.135 mg per day for 56 days) was 12.8 days, the “P concentrations after post-treatment ovulation” value ([2]; majority of subjects, within the 30-day post-treatment period) was ≥ 16 nmol/L and the “Subjects with Hoogland-Skouby score 1 (No activity), %” value (shortened to “Subjects … (No activity), %”) [3, 7] was 3.7%. For the same molecule, the “Subjects with Hoogland-Skouby score 2 (Potential activity), %” value (shortened to “Subjects … (Potential activity), %”) [3, 7] was 29.6%, the “Subjects with Hoogland-Skouby score 3 (Non-active FLS), %” value (from here on “Subjects … (Non-active FLS), %”) [3, 7] was 3.7% and the “Subjects with Hoogland-Skouby score 4 (Active FLS), %” value (“Subjects … (Active FLS), %” for short) [3, 7] was 55.6%. For the same molecule, the “Subjects with Hoogland-Skouby score 5 (LUF), %” value (“Subjects … (LUF), %” for short) [3, 7] was 0%, the “Subjects with Hoogland-Skouby score 6 ('Ovulation'), %” value (from here on “Subjects … ('Ovulation'), %”) [3, 7] was 7.4% and the “Subjects … (No activity), %” value [3, 8] was 0%. For the same molecule, the “Subjects … (Potential activity), %” value [3, 8] was 24.0%, the “Subjects … (Non-active FLS), %” value [3, 8] was 0% and the “Subjects … (Active FLS), %” value [3, 8] was 76.0%. For the same molecule, the “Subjects … (LUF), %” value [3, 8] was 0%, the “Subjects … ('Ovulation'), %” value [3, 8] was 0% and the “Subjects … (No activity), %” value [3, 12] was 3.7%. For the same molecule, the “Subjects … (Potential activity), %” value [3, 12] was 22.2%, the “Subjects … (Non-active FLS), %” value [3, 12] was 3.7% and the “Subjects … (Active FLS), %” value [3, 12] was 70.4%. The “Subjects … (LUF), %” value [3, 12] was 0%, the “Subjects … ('Ovulation'), %” value [3, 12] was 0% and the “Subjects … (No activity), %” value [3, 13] was 3.85%. The “Subjects … (Potential activity), %” value [3, 13] was 23.1%, the “Subjects … (Non-active FLS), %” value [3, 13] was 7.7% and the “Subjects … (Active FLS), %” value [3, 13] was 65.4%. The “Subjects … (LUF), %” value [3, 13] was 0%, the “Subjects … ('Ovulation'), %” value [3, 13] was 0% and the “Subjects … (No activity), %” value [3, 17] was 4.0%. The “Subjects … (Potential activity), %” value [3, 17] was 32.0%, the “Subjects … (Non-active FLS), %” value [3, 17] was 0% and the “Subjects … (Active FLS), %” value [3, 17] was 64.0%. The “Subjects … (LUF), %” value [3, 17] was 0%, the “Subjects … ('Ovulation'), %” value [3, 17] was 0% and the “Subjects … (No activity), %” value [3, 18] was 4.0%. For the same molecule, the “Subjects … (Potential activity), %” value [3, 18] was 24.0%, the “Subjects … (Non-active FLS), %” value [3, 18] was 4.0% and the “Subjects … (Active FLS), %” value [3, 18] was 68.0%. The “Subjects … (LUF), %” value [3, 18] was 0%, the “Subjects … ('Ovulation'), %” value [3, 18] was 0% and the “Lowest dosage at which no ovulation occurred (lowest effective dosage)” value ([3]; once daily oral, two 28-day treatment periods, 0.095, 0.115 and 0.135 mg tested) was 0.115 mg per day.
